Test results as given in patent publication US7560473B2 (Institute of Pharmacology and Toxicology Academy of …, priority 2001, dated 2009).

Experiments:
[1] = system: spontaneously hypertensive rats; assay: Acute antihypertensive effects in conscious spontaneously hypertensive rats; type: in vivo; details: for SBP at 1 h after administration / heart rates at 1 h / SBP at 3 h after administration / heart rates at 3 h / SBP at 5 h after administration / heart rates at 5 h / SBP at 9 h after administration / heart rates at 9 h / SBP at 12 h after administration / heart rates at 12 h / SBP at 24 h after administration / heart rates at 24 h / SBP base value / heart rates base value: po mg/kg: compound 1 3, pinacidil 3, nifedipine 10, bisoprolol 60, captopril 40, means ± SD, 9-13 rats; for heart rates at 1 h / heart rates at 3 h / heart rates at 5 h / heart rates at 9 h / heart rates at 12 h / heart rates at 24 h / heart rates base value: in bpm (unit assumed); for SBP base value / heart rates base value: base value before administration
Text: Biological activity experiment 2. The acute antihypertensive effects of compound 1 in conscious spontaneously hypertensive rats.
The methods of biological activity experiment 2 were described by Long Chao-Liang et al: Long Chao-Liang, Wang Hai, Xiao Wen-Bin. Effects of pinacidil on, hypertensive vascular remodeling. Chin J Pharmacol Toxicol 1997; 11(1):42-46.

[2] = system: rats anesthetized with pentobarbital sodium; assay: Antagonism of glibenclamide on the cardiovascular effects in anesthetized rats; type: in vivo, Wistar rats; details: for +dp/dtmax / DBP / HR / LVSP / MBP / SB / Vpm / −dp/dtmax: iv mg/kg: pinacidil 1.0, nifedipine 1.0, compound 1 0.5, means ± SE; for antagonism of the cardiovascular effects by glibenclamide (in words): glibenclamide 20 mg/kg iv pretreatment
Experimental: The methods of biological activity experiment 1 were as follows: Male Wistar rats, weighing 280±30 g were purchased from the experimental animal center of Academy of Military Medical Sciences. Rats were anesthetized with pentobarbital sodium (45 mg/kg) by peritoneal injection. A PE50 polyethylene catheter was inserted into the left ventricle through right carotid artery for cardiac function measurement with a pressure energe exchanger, wherein the signal is put into a SMUP-PC biosignal processing system. Cardiac functional parameters such as HR, LVSP, +dp/dtmax, −dp/dtmax and Vpm were recorded. Another two PE50 polyethylene catheters were inserted into the right femoral artery and vein respectively for blood pressure measurement wherein the artery cathether was linked to a four-channel physiology recorder (RM-6000) through a MPU-0.5A Type pressure energe exchanger, which recorded SBP, DBP and MBP, while the vein catheter was used for compound administration. The methods were described by Liu Wei et al: Liu Wei, Wang Hai, Xiao Wen-Bin.
The methods of Biological activity experiment 3 were the same as those described in the biological activity experiment 1.

[3] = target: T1, ATP-sensitive potassium channels in vascular smooth muscles (Rattus norvegicus, UniProt Q63563); assay: Association and dissociation kinetics of [^3H]glibenclamide binding in aortic rings; design: species or system Wistar rat; details: drug M: compound 1 10^−4, pinacidil 10^−4, ATP 10^−2, ADP 10^−3, UDP 5 × 10^−3, Ade 10^−3; for Dissociation kinetics k2 of [^3H]glibenclamide binding / Association kinetics k1 of [^3H]glibenclamide binding / Association kinetics kobs of [^3H]glibenclamide binding / Association kinetics kA of [^3H]glibenclamide binding: 25° C.; for Dissociation kinetics k2 of [^3H]glibenclamide binding: control 0.72 ± 0.11; for Dissociation kinetics Kd of [^3H]glibenclamide binding in presence of the drug: Kd of the radioligand, not of the drug, control 0.55 ± 0.14; for Association kinetics k1 of [^3H]glibenclamide binding / Association kinetics kobs of [^3H]glibenclamide binding / Association kinetics kA of [^3H]glibenclamide binding: [^3H]-glibenclamide 3 nM; for Association kinetics k1 of [^3H]glibenclamide binding: control 1.31 ± 0.14; for Association kinetics kobs of [^3H]glibenclamide binding: control 4.65 ± 0.37, means ± SD, n = 4~10; for Association kinetics kA of [^3H]glibenclamide binding: control 181.90 ± 46.90
T1 construct: The aorta was cut into about 3-5 mm arterial rings and the vascular endothelium was scraped off; from tissue; host or cells: endothelium-removed aortic rings of male Wistar rats
Text: Biological activity experiment 4. Allosteric regulation of novel compounds on ATP-sensitive potassium channels in vascular smooth muscles.
To study the allosteric regulation of compound 1 on ATP-sensitive potassium channels in vascular smooth muscles, the radio-labled-ligand was used in the biological activity experiment 4.
1. The allosteric regulation of compound 1 on the binding sites for the selective KATP blocker glibenclamide in vascular smooth muscles was studied as follows: After decapitated, the male Wistar rat (340±20 g) was immediately incised open the thoracic cavity. The aorta was dissected and immersed in the 4° C. buffer containing 10 mM HEPES to wash off the blood, then carefully extirpated the fat, peripheral connective tissues and thrombus. The aorta was cut into about 3-5 mm arterial rings and the vascular endothelium was scraped off with wet tampon. The arterial rings were blotted, weighted and transferred into the tubes containing proper amount of ice colded physiological saline buffer. […] At 5,10,15,20,30,60,90 and 120 min after incubation, 9 mL ice colded Tris buffer (50 mM) was added to terminate the reaction. After washing off the free and bound [^3H]-glibenclamide, the aorta was blotted, transferred to a scintillator, added 50 uL 30% H2O2 and reacted for 2 h at 80° C. After cooling, 2.5 mL ethyl glycol and 5 mL 1% B-BPD xylene were added in sequence, kept stationary for 8 h and measured under a scintillometer for cpm value. The resulting data were fit into a regression line with In[BEQ/(BEQ-Bt)]vs.t and the parameters for association kinetics were obtained. In the disassociation kinetics experiments, the aorta treated as described above and [^3H]-glibenclamide were incubated for 60 min at 25° C., and then 30 uM glibenclamide was added. 0,5,15,30,60,90 and 120 min later, the cpm values for the complex of [^3H]-glibenclamide and KATP were measured. The resulting data were fit into a regression line with In(B/BEQ)]vs.t and the parameters for disassociation kinetics were obtained. 2. The allosteric regulation of compound 1 on the binding sites for the selective KATP activator P1075 in vascular smooth muscles was studied with the method as described above, but some conditions should be changed as follows: the incubation temperature was 37° C. instead of 25° C.;P1075 was used instead of glibenclamide; In the association kinetics experiments, the time points for sampling were 5,10,15,20,30,45,60 and 90 min, while in the disassociation kinetics experiments, that were 1,3,5,10,20,30,45 and 60 min. Biological activity experiment 5. The effects of compound 1 on the specific binding of high selective activator [^3H]P1075 with ATP-sensitive potassium channels in vascular smooth muscles.

[4] = target: T1, ATP-sensitive potassium channels in vascular smooth muscles; assay: Inhibition of specific binding of [^3H]P1075 in endothelium-removed rat aorta; design: species or system Wistar rat; details: for IC50 / Ki: [^3H] P1075 5 nmol L^−1, 90 minutes at 37° C., endothelium-removed rat aorta; for Ki: read-out: pKi for inhibition of specific binding of [^3H]P1075 (converted)
[5] = A: after administration (30 min after pinacidil, 10 min nifedipine, 15 min compound 1), glibenclamide 20 iv pretreatment
[6] = B: before administration, glibenclamide 20 iv pretreatment ten minutes

T1 sequence (Q63563 1-1545 isoform Q63563-2): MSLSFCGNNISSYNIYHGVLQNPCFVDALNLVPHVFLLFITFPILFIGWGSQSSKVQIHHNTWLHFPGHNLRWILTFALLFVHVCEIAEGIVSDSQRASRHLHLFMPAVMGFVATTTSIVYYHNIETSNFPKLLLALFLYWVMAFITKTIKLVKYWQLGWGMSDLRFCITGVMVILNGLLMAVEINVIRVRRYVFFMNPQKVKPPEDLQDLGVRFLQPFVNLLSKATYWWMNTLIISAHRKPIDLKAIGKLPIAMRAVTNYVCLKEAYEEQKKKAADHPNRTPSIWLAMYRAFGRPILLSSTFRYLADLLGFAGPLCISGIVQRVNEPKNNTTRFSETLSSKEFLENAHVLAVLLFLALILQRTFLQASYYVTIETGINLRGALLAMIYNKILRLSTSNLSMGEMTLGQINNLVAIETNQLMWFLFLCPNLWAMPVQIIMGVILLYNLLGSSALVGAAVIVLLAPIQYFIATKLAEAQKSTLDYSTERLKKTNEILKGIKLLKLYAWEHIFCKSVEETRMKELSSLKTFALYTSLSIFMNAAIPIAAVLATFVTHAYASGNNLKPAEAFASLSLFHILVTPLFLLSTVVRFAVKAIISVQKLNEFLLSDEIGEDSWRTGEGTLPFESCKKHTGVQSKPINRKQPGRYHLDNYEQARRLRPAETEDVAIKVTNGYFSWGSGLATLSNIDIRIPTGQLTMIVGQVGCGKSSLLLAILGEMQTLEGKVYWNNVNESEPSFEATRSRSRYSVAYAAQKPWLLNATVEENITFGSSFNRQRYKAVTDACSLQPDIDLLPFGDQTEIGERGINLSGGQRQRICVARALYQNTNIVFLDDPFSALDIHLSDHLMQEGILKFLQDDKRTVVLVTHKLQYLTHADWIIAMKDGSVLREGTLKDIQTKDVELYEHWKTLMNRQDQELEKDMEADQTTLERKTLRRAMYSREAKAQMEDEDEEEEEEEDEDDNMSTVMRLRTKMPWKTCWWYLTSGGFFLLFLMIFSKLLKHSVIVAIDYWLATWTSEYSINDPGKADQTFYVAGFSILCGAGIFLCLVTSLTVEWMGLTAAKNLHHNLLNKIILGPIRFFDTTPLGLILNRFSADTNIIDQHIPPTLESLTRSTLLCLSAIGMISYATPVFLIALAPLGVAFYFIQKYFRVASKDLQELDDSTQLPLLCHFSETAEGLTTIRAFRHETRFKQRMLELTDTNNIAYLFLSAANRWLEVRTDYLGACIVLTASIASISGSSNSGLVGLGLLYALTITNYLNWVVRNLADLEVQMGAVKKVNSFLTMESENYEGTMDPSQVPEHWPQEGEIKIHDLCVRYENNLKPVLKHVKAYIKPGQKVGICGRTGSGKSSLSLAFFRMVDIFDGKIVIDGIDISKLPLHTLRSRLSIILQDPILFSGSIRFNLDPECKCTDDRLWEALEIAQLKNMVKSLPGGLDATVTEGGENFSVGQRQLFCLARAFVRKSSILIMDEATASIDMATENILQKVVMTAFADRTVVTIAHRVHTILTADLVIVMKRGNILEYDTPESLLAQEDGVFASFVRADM
T1 sequence (Q63664 whole entry partner): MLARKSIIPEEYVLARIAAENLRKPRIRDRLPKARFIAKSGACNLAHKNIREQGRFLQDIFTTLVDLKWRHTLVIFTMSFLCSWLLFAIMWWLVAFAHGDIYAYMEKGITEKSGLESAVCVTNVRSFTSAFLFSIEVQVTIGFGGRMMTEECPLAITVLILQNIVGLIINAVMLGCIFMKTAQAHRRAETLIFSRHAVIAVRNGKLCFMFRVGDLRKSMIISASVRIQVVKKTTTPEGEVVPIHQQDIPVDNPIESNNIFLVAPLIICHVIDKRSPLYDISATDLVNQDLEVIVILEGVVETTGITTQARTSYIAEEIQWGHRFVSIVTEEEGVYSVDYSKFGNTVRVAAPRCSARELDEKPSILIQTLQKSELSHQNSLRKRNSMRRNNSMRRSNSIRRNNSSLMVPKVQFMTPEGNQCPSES

Structure (SMILES): CC(C)NC(C)(C)C(C)C [compound 1, N-(1-methylethyl)-2,3-dimethyl-2-butylamine]
- SBP at 1 h after administration [1]: 227 ± 12 mmHg
- heart rates at 1 h [1]: 414 ± 27
- SBP at 3 h after administration [1]: 218 ± 7 mmHg
- heart rates at 3 h [1]: 412 ± 27
- SBP at 5 h after administration [1]: 215 ± 15 mmHg
- heart rates at 5 h [1]: 408 ± 25
- SBP at 9 h after administration [1]: 229 ± 8 mmHg
- heart rates at 9 h [1]: 407 ± 21
- SBP at 12 h after administration [1]: 243 ± 7 mmHg
- heart rates at 12 h [1]: 413 ± 15
- SBP at 24 h after administration [1]: 244 ± 9 mmHg
- heart rates at 24 h [1]: 417 ± 12
- SBP base value [1]: 246 ± 11 mmHg
- heart rates base value [1]: 419 ± 20
- duration of antihypertensive action ([1]; oral administration, spontaneously hypertensive rats): 9 h
- +dp/dtmax [2, 5]: 672 ± 36 kPa/a
- DBP [2, 5]: 77 ± 9 mmHg
- HR [2, 5]: 357 ± 18 bpm
- LVSP [2, 5]: 133 ± 6 mmHg
- MBP [2, 5]: 86 ± 9 mmHg
- SB [2, 5]: 105 ± 10 mmHg
- Vpm [2, 5]: 2.7 ± 03 /a
- −dp/dtmax [2, 5]: 507 ± 39 kPa/a
- +dp/dtmax [2, 6]: 978 ± 54 kPa/a
- DBP [2, 6]: 98 ± 7 mmHg
- HR [2, 6]: 394 ± 13 bpm
- LVSP [2, 6]: 180 ± 10 mmHg
- MBP [2, 6]: 110 ± 7 mmHg
- SB [2, 6]: 134 ± 8 mmHg
- Vpm [2, 6]: 3.3 ± 0.2 /a
- −dp/dtmax [2, 6]: 819 ± 56 kPa/a
- antagonism of the cardiovascular effects by glibenclamide (in words) [2]: could be antagnized by glibenclamide
- Dissociation kinetics k2 of [^3H]glibenclamide binding [3]: 1.02 ± 0.14 ×10^2 nM^−1 · min^−1
- Dissociation kinetics Kd of [^3H]glibenclamide binding in presence of the drug [3]: 1.64 ± 0.69 nM
- Association kinetics k1 of [^3H]glibenclamide binding [3]: 0.62 ± 0.25 ×10^−2nM^−1 · min^−1
- Association kinetics kobs of [^3H]glibenclamide binding [3]: 2.90 ± 0.74 ×10^−2nM^−1 · min^−1
- Association kinetics kA of [^3H]glibenclamide binding [3]: 61.04 ± 25.89 ×10^−2nM^−1 · min^−1
- IC50 [4]: 355 ± 53.7 nM
- Ki [4]: 355 nM
- competitive inhibition of [^3H] P1075 binding, times weaker than that of P1075 ([4]; relative to P1075): 39 times
- competitive inhibition of [^3H] P1075 binding, times stronger than that of glibenclamide ([4]; relative to glibenclamide): 166 times
- competitive inhibition of [^3H] P1075 binding, times weaker than that of pinacidil ([4]; relative to pinacidil): 1.8 times

Structure (SMILES): CC(N/C(=N\C#N)Nc1ccncc1)C(C)(C)C (centres unmarked) [pinacidil]
- SBP at 1 h after administration [1]: 208 ± 5 mmHg
- heart rates at 1 h [1]: 421 ± 17
- SBP at 3 h after administration [1]: 236 ± 5 mmHg
- heart rates at 3 h [1]: 400 ± 15
- SBP at 5 h after administration [1]: 241 ± 4 mmHg
- heart rates at 5 h [1]: 354 ± 14
- SBP at 9 h after administration [1]: 242 ± 5 mmHg
- heart rates at 9 h [1]: 365 ± 16
- SBP at 12 h after administration [1]: 244 ± 5 mmHg
- heart rates at 12 h [1]: 352 ± 20
- SBP at 24 h after administration [1]: 244 ± 5 mmHg
- heart rates at 24 h [1]: 365 ± 15
- SBP base value [1]: 242 ± 5 mmHg
- heart rates base value [1]: 351 ± 19
- +dp/dtmax [2, 5]: 571 ± 33 kPa/a
- DBP [2, 5]: 67 ± 6 mmHg
- HR [2, 5]: 317 ± 25 bpm
- LVSP [2, 5]: 111 ± 9 mmHg
- MBP [2, 5]: 76 ± 7 mmHg
- SB [2, 5]: 91 ± 8 mmHg
- Vpm [2, 5]: 4.1 ± 0.5 /a
- −dp/dtmax [2, 5]: 447 ± 73 kPa/a
- +dp/dtmax [2, 6]: 673 ± 28 kPa/a
- DBP [2, 6]: 92 ± 5 mmHg
- HR [2, 6]: 353 ± 17 bpm
- LVSP [2, 6]: 124 ± 6 mmHg
- MBP [2, 6]: 104 ± 5 mmHg
- SB [2, 6]: 128 ± 5 mmHg
- Vpm [2, 6]: 4.3 ± 0.5 /a
- −dp/dtmax [2, 6]: 536 ± 42 kPa/a
- antagonism of the cardiovascular effects by glibenclamide (in words) [2]: could aslo block
- Dissociation kinetics k2 of [^3H]glibenclamide binding [3]: 1.15 ± 0.27 ×10^2 nM^−1 · min^−1
- Dissociation kinetics Kd of [^3H]glibenclamide binding in presence of the drug [3]: 2.95 ± 0.95 nM
- Association kinetics k1 of [^3H]glibenclamide binding [3]: 0.39 ± 0.24 ×10^−2nM^−1 · min^−1
- Association kinetics kobs of [^3H]glibenclamide binding [3]: 2.32 ± 0.67 ×10^−2nM^−1 · min^−1
- Association kinetics kA of [^3H]glibenclamide binding [3]: 33.91 ± 22.43 ×10^−2nM^−1 · min^−1
- IC50 [4]: 200 ± 43.6 nM
- Ki [4]: 200 nM
